The values that follow come from US7045343B2, “Sterilization indicator test packs” (3M Innovative Properties Company, priority 1998, dated 2006).

The subject of assay [1] is enzyme associated with Bacillus stearothermophilus spores. The experiment in a line: Rapid enzyme fluorescence readout of dual rapid readout indicators after prevacuum steam sterilization. It is filed as biochemical. Particulars: 4-pulse prevacuum steam 121° C. The method, boiled down:
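This is a rapid enzyme test in which spore-associated enzyme activity is detected by fluorescence. Spores coated with chemicals were dried on 5×25 mm paper strips for 16 hours at 37° C. They were loaded into indicators that carried 4-methylumbelliferyl-alpha-D-glucoside substrate, with untreated spores serving as controls. After 4-pulse prevacuum steam exposure at 121° C, with vacuum at 0.075–0.085 bar, the substrate ampoules were crushed and the indicators were incubated at 60° C and read with an autoreader.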

The test system is the same in assay [2]. The experiment in a line: Rapid enzyme fluorescence readout of indicators after hydrogen peroxide plasma sterilization. It is filed as biochemical. Particulars: for FLUORESCENCE - PERCENT POSITIVE 1 HR / FLUORESCENCE - PERCENT POSITIVE 2 HR / FLUORESCENCE - PERCENT POSITIVE 3 HR / FLUORESCENCE - PERCENT POSITIVE 4 HR / FLUORESCENCE - PERCENT POSITIVE 5 HR: 1–22 min diffusion. How it is done: (§1) Sterilization indicators for Examples 6–9 were prepared as described above with the exception that closure member 22 of the sterilization indicator was constructed of TYVEK™ high-density polyethylene fiber material, commercially available from E.I. du Pont de Nemours and Co., Wilmington, Del.
(§2) Sterilization indicators were made as described above with spores that had been coated with each of the chemicals and concentrations listed in Table 6. The indicators were placed in instrument trays and exposed to a hydrogen peroxide plasma sterilization procedure at 45–55° C. in a STERRAD™ 100SI GMP Sterilizer, obtained from Advanced Sterilization Products Co., Irvine, Calif. During the sterilization procedure a vacuum was drawn in the sterilization chamber for 5–6 minutes until the pressure was reduced to 300 mTorr. A 1.8 ml aliquot of an aqueous solution of 58–60% hydrogen peroxide was then injected into the sterilization chamber over a period of about 6 minutes, yielding an empty chamber concentration of […] hydrogen peroxide, and hydrogen peroxide vapor was allowed to diffuse throughout the chamber for 1–22 minutes at 6–10 Torr. A vacuum was then drawn, reducing the pressure to 500 mTorr and removing all detectable hydrogen peroxide vapor from the chamber.
(§3) After exposure to the sterilization procedure, the indicators were removed from the sterilizer and the inner containers containing the enzyme substrate and nutrient medium were crushed. The indicators were then incubated at 60° C. and examined for fluorescence every hour for 5 hours using a 3M™ ATTEST™ Model 190 Rapid Autoreader, commercially available from 3M Company, St. Paul, Minn. Additionally, spore growth, as indicated by a color change from purple to yellow, was determined visually after 168 hours of incubation.
(§4) The number of growth positive indicators detected after 168 hours of incubation is recorded in Table 6.
as §2, with “7.” for “6.”
as §2, with “8.” for “6.”, “chamber. […]” for “chamber.”

Assay [3] deals with Bacillus stearothermophilus spores. The experiment in a line: Spore outgrowth (color change) of indicators after hydrogen peroxide plasma sterilization. The format is cell-based. To be noted: 1–22 min diffusion. The protocol: as §1, §2, §3, §4
as §2, with “7.” for “6.”
as §2, with “8.” for “6.”, “chamber. […]” for “chamber.”

For assay [4] the test system is unchanged. Put plainly: Spore outgrowth (color change) of indicators after prevacuum steam sterilization. Particulars: 4-pulse prevacuum steam 121° C. The format is cell-based. The method, boiled down:
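Self-contained indicators held coated spore strips, a polypropylene microfiber barrier and a crushable inner container. That container held peptone, L-alanine, 4-methylumbelliferyl-alpha-D-glucoside and bromocresol purple at pH 7.6. Indicators sat in metal trays in a Getinge sterilizer running pulses of 0.075–0.085 bar vacuum and steam to 1.00 bar at 121° C. Incubation at 60° C followed, and yellow color at 168 hours scored spore outgrowth.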

Setting [5] is: Example 5, 50 mg/ml coating, 7–13 min.
The mark [6] stands for this setting: Example 5, 100 mg/ml coating, 7–13 min.
Where [7] appears, read: Example 4, 50 mg/ml coating, 7–18 min.
The mark [8] stands for this setting: Example 4, 100 mg/ml coating, 7–18 min.

On to “polyoxyethylene (20) sorbitan monostearate [POE(20) Sorbitan Monostearate]”, for which the “FLUORESCENCE - PERCENT POSITIVE 1 HR” value is 0% in assay [1] (setting [5]); 0% in assay [1] (setting [6]); 100% in assay [2] (Example 7, 50 mg/ml coating); 50% in assay [2] (Example 7, 100 mg/ml coating). Further, the “FLUORESCENCE - PERCENT POSITIVE 2 HR” value is on record as 0% in assay [1] (setting [5]); 0% in assay [1] (setting [6]); 100% in assay [2] (Example 7, 50 mg/ml coating); 50% in assay [2] (Example 7, 100 mg/ml coating). The “FLUORESCENCE - PERCENT POSITIVE 3 HR” value worked out at 0% in assay [1] (setting [5]); 0% in assay [1] (setting [6]); 100% in assay [2] (Example 7, 50 mg/ml coating); 62.5% in assay [2] (Example 7, 100 mg/ml coating). Besides, the “FLUORESCENCE - PERCENT POSITIVE 4 HR” value was 0% in assay [1] (setting [5]); 0% in assay [1] (setting [6]); 100% in assay [2] (Example 7, 50 mg/ml coating); 75% in assay [2] (Example 7, 100 mg/ml coating). In addition, the “accuracy of sterilization indicators compared to indicators made with untreated spores” value in assay [2] (2–3 hours after exposure) was “improved”. Moreover, the “FLUORESCENCE - PERCENT POSITIVE 5 HR” value in assay [2] (Example 7, 50 mg/ml coating) worked out at 100%; in assay [2] (Example 7, 100 mg/ml coating), 75%. Moreover, the “NO. GROWTH POSITIVE 168 HR” value in assay [3] (Example 7, 50 mg/ml coating) is 6; in assay [3] (Example 7, 100 mg/ml coating), 8; in assay [4] (setting [5]), 5; in assay [4] (setting [6]) it was 2.
On to Decaglyceryl Dipalmitate, for which the “accuracy of sterilization indicators compared to indicators made with untreated spores” value in assay [1] is listed as “improved”. Further, in assay [1] (setting [7]), the “FLUORESCENCE - PERCENT POSITIVE 1 HR” value came to 7.1%, the “FLUORESCENCE - PERCENT POSITIVE 2 HR” value came to 67.9%, the “FLUORESCENCE - PERCENT POSITIVE 3 HR” value was 89.3% and the “FLUORESCENCE - PERCENT POSITIVE 4 HR” value was found to be 92.9%. In assay [1] (setting [8]), the “FLUORESCENCE - PERCENT POSITIVE 1 HR” value amounted to 34.6%, the “FLUORESCENCE - PERCENT POSITIVE 2 HR” value is recorded as 61.5%, the “FLUORESCENCE - PERCENT POSITIVE 3 HR” value is listed as 69.2% and the “FLUORESCENCE - PERCENT POSITIVE 4 HR” value came out at 69.2%. Further, in assay [2] (Example 8, 50 mg/ml coating), the “FLUORESCENCE - PERCENT POSITIVE 1 HR” value worked out at 66.7%, the “FLUORESCENCE - PERCENT POSITIVE 2 HR” value is given as 74.1%, the “FLUORESCENCE - PERCENT POSITIVE 3 HR” value is 77.8% and the “FLUORESCENCE - PERCENT POSITIVE 4 HR” value is reported as 77.8%. Moreover, the “FLUORESCENCE - PERCENT POSITIVE 5 HR” value in assay [2] (Example 8, 50 mg/ml coating) is recorded as 77.8%. For the same substance, the “NO. GROWTH POSITIVE 168 HR” value in assay [3] (Example 8, 50 mg/ml coating) worked out at 27. Besides, in assay [4] (setting [7]), the “NO. GROWTH POSITIVE 168 HR” value amounted to 28. For the same substance, the “NO. GROWTH POSITIVE 168 HR” value in assay [4] (setting [8]) turned out to be 26.
As for Sodium POE(8) Oleyl Ether Phosphate, the “FLUORESCENCE - PERCENT POSITIVE 1 HR” value in assay [1] (setting [5]) amounted to 0%; in assay [1] (setting [6]) it was 0%; in assay [2] (Example 8, 50 mg/ml coating), 0%; in assay [2] (Example 8, 100 mg/ml coating) it was 0%. For the same substance, the “FLUORESCENCE - PERCENT POSITIVE 2 HR” value in assay [1] (setting [5]) was 0%; in assay [1] (setting [6]), 0%; in assay [2] (Example 8, 50 mg/ml coating) it was 0%; in assay [2] (Example 8, 100 mg/ml coating), 0%. Moreover, the “FLUORESCENCE - PERCENT POSITIVE 3 HR” value in assay [1] (setting [5]) stood at 0%; in assay [1] (setting [6]), 0%; in assay [2] (Example 8, 50 mg/ml coating) it was 0%; in assay [2] (Example 8, 100 mg/ml coating), 0%. Besides, the “FLUORESCENCE - PERCENT POSITIVE 4 HR” value in assay [1] (setting [5]) is listed as 0%; in assay [1] (setting [6]), 0%; in assay [2] (Example 8, 50 mg/ml coating), 0%; in assay [2] (Example 8, 100 mg/ml coating), 0%. Moreover, the “FLUORESCENCE - PERCENT POSITIVE 5 HR” value came out at 0% in assay [2] (Example 8, 50 mg/ml coating) and 0% in assay [2] (Example 8, 100 mg/ml coating). Besides, the “NO. GROWTH POSITIVE 168 HR” value was 0 in assay [3] (Example 8, 50 mg/ml coating); 0 in assay [3] (Example 8, 100 mg/ml coating); 6 in assay [4] (setting [5]); 3 in assay [4] (setting [6]).
